Like-named read-outs stand apart in the source and are kept apart here.
Key:
Sigma 2 (h) = Sigma 2 (h) (Homo sapiens (Human), UniProt Q5BJF2); test: Sigma-2 binding assay
Description: (§1) Assays for determining Sigma-1 and Sigma-2 binding values were performed according to Ganapathy, M. E. et al. (1999), J. Pharmacol. Exp. Ther., 289:251-260.

sigma 1 (h) = sigma 1 (h) (Homo sapiens (Human), UniProt Q99720); test: Sigma-1 binding assay; conditions: [3H](+)pentazocine, Jurkat cells; read-out: Sigma-1 Ki
Sequence of sigma 1 (h) (Q99720 whole entry): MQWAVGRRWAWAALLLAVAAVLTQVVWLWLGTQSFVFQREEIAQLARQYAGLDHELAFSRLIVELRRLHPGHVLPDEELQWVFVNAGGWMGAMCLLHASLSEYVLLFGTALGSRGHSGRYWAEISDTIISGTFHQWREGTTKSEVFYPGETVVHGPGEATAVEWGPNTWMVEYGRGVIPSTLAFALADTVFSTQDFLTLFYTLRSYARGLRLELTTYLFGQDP
Description: as §1

hERG = hERG (Homo sapiens (Human), UniProt Q12809); test: hERG inhibition assay
Sequence of hERG (Q12809 whole entry): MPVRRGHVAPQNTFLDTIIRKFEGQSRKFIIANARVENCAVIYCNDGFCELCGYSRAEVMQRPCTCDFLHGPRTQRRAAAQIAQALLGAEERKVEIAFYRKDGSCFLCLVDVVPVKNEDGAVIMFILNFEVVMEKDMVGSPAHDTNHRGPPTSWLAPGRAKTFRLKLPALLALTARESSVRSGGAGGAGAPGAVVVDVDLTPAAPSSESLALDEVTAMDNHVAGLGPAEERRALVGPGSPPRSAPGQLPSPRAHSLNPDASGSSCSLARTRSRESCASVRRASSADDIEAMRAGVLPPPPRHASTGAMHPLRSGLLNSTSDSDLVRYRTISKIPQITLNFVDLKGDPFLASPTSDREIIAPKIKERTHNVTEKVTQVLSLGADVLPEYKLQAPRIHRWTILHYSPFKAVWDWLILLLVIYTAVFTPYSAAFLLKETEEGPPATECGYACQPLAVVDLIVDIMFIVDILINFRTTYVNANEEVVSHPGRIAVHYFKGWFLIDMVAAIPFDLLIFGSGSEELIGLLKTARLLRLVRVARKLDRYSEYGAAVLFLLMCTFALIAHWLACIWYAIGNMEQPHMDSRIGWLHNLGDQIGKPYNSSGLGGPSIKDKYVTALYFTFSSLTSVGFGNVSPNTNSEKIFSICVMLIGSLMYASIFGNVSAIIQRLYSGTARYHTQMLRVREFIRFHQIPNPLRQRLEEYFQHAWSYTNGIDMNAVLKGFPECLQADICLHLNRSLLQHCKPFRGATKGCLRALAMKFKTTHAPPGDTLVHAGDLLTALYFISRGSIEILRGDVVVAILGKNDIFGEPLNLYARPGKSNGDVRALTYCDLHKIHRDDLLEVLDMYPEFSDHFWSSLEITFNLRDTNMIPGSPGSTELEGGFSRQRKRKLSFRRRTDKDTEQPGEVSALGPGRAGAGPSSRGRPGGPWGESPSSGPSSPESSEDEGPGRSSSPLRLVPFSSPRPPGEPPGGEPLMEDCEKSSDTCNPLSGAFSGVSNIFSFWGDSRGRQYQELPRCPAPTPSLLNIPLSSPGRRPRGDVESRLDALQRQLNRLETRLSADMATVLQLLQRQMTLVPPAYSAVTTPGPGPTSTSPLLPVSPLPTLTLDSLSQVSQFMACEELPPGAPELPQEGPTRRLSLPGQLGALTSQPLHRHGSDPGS

5HT2A = 5HT2A (Homo sapiens (Human), UniProt P28223); test: 5HT2A agonist effect assay; format: cell-based; conditions: for activation at 0.1 µM: 100 nM, read-out: % stimulation relative to control (100 nM); for activation at 1 µM: read-out: % stimulation relative to control (1 μM)
Description: Assays for determining the agonist effect on 5HT2A were performed according to the procedure described in Example 21, and the results are represented in Table F below. The compounds in Table F have no agonist effect on 5HT2A at 1 μM and 100 nM.

α1a (h) [1] = target: T1, α1a (h) (Homo sapiens (Human), UniProt P35348); test: α1A adrenergic agonist effect assay; format: cell-based; conditions: α1A(h) agonist effect, 1 μM; read-out: % stimulation relative to control (1 μM)
T1 sequence (P35348 whole entry): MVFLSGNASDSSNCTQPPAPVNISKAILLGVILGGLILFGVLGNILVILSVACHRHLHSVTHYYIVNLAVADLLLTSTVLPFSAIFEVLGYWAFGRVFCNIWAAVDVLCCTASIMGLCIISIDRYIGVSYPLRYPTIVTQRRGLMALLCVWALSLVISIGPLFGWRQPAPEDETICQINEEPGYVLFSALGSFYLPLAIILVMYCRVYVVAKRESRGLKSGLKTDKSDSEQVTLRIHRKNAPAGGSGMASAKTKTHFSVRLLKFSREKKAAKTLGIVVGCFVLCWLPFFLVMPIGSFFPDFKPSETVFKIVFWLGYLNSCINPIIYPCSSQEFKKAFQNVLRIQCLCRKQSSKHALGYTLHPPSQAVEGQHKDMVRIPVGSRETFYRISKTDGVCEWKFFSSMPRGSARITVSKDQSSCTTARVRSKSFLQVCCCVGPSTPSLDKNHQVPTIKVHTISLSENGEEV
Description: Assays for determining the agonist effect on α1A (h) were performed according to the procedure described in Example 21, and the results are represented in Table D below.

dopamine D2S receptor = dopamine D2S receptor (Homo sapiens (Human), UniProt P14416); test: Dopamine D2S receptor binding assay (Eurofins Cerep item 1322); conditions: [3H]7-OH-DPAT, read-out: % inhibition of control specific binding (1 μM)
Sequence of dopamine D2S receptor (P14416 other isoform, or with tags, fused parts or gaps): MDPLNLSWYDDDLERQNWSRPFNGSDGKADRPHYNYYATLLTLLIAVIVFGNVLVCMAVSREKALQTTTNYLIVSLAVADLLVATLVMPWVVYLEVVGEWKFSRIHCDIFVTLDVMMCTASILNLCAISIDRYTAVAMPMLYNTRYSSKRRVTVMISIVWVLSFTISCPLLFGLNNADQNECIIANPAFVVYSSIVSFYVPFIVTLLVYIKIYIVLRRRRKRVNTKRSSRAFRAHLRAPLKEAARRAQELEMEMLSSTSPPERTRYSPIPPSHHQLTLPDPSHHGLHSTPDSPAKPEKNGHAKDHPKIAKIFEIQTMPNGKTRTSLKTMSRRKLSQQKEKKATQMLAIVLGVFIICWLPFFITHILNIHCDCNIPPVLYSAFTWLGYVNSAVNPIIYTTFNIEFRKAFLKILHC
Description: Assays for determining dopamine D2S receptor binding values were performed according to Eurofins Cerep protocol item 1322 and the results are represented in Table C below. The parameters used for the assay are described below. […] Common antipsychotics, in contrast, block dopamine receptors (Keefe, et al., J Clin Psychiatry. 2018; 79 (3): 17m11753).

α1a (h) [2] = target: T1, α1a (h); test: α1A adrenergic antagonist effect assay; format: cell-based; conditions: for inhibition at 1 µM: α1A(h) antagonist effect, read-out: % inhibition of control values (1 μM)
Description: Assays for determining the antagonist effect on α1A (h) were performed according to the procedure described in Example 21, and the results are represented in Table E below. […] No antagonist effect is observed for the other compounds.

[3] = [3H]DTG (+1 μM (+)pentazocine), Jurkat cells, read-out: Sigma-2 Ki

Sequence of Sigma 2 (h) (Q5BJF2 whole entry): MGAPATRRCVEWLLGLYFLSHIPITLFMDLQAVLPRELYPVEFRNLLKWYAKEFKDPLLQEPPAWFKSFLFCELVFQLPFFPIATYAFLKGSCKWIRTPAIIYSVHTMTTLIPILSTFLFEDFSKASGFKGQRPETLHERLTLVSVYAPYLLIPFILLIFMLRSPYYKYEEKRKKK

Row | Structure (SMILES) | Ki (Sigma 2 (h); [3]) [nM] | Ki (sigma 1 (h)) [nM] | IC50 (hERG) [nM] | Ki (Sigma 2 (h)) [nM] | activation at 0.1 µM (5HT2A) [%] | activation at 1 µM (5HT2A) [%] | activation at 1 µM (α1a (h) [1]) [%] | inhibition at 1 µM (dopamine D2S receptor) [%] | inhibition at 1 µM (α1a (h) [2]) [%] | antagonist effect on α1A (h) (in words) (α1a (h) [2])
1 | CN1CCN(c2ccc3c(c2)CN(C(=O)OCc2ccccc2)CC3(C)C)CC1 [Compound 1, benzyl 4,4-dimethyl-7-(4-methylpiperazin-1-yl)-3,4-dihydroisoquinoline-2(1H)-carboxylate] | 100 to 500 | 100 to 500 |  |  |  |  |  |  |  | 
2 | COC(=O)CCN1CCN(c2ccc3c(c2)CN(C(=O)OCc2ccccc2)CC3(C)C)CC1 [Compound 3, benzyl 7-(4-(3-methoxy-3-oxopropyl)piperazin-1-yl)-4,4-dimethyl-3,4-dihydroisoquinoline-2(1H)-carboxylate] | 5 to 50 | 100 to 500 |  |  |  |  |  |  |  | 
3 | CC1(C)CN(C2CCCC2)Cc2cc(-c3ccc(C(F)(F)F)cc3)ccc21 [Compound 4, 2-cyclopentyl-4,4-dimethyl-7-(4-(trifluoromethyl)phenyl)-1,2,3,4-tetrahydroisoquinoline] | 100 to 500 | > 500 |  |  |  |  |  |  |  | 
4 | CC1(C)CN(CCCO)Cc2cc(-c3ccc(C(F)(F)F)cc3)ccc21 [Compound 5, 3-(4,4-dimethyl-7-(4-(trifluoromethyl)phenyl)-3,4-dihydroisoquinolin-2(1H)-yl)propan-1-ol] | 100 to 500 | 100 to 500 |  |  |  |  |  |  |  | 
5 | CCCN1Cc2cc(-c3ccc(C(F)(F)F)cc3)ccc2C(C)(C)C1 [Compound 6, 4,4-dimethyl-2-propyl-7-(4-(trifluoromethyl)phenyl)-1,2,3,4-tetrahydroisoquinoline] | > 500 | > 500 |  |  |  |  |  |  |  | 
6 | CN1CCN(c2ccc3c(c2)CN(C(=O)OCc2ccccc2)CCC3(C)C)CC1 [Compound 7, benzyl 5,5-dimethyl-8-(4-methylpiperazin-1-yl)-1,3,4,5-tetrahydro-2H-benzo[c]azepine-2-carboxylate] | 100 to 500 | 5 to 50 |  |  |  |  |  |  |  | 
7 | CCCN1CCN(c2ccc3c(c2)CN(C(=O)OCc2ccccc2)CCC3(C)C)CC1 [Compound 8, benzyl 5,5-dimethyl-8-(4-propylpiperazin-1-yl)-1,3,4,5-tetrahydro-2H-benzo[c]azepine-2-carboxylate] | 5 to 50 | 0.1 to 5 |  |  |  |  |  |  |  | 
8 | COC(=O)CCN1CCN(c2ccc3c(c2)CN(C(=O)OCc2ccccc2)CCC3(C)C)CC1 [Compound 9, benzyl 8-(4-(3-methoxy-3-oxopropyl)piperazin-1-yl)-5,5-dimethyl-1,3,4,5-tetrahydro-2H-benzo[c]azepine-2-carboxylate] | 5 to 50 | 5 to 50 |  |  |  |  |  |  |  | 
9 | CC1(C)CCN(CCCO)Cc2cc(-c3ccc(C(F)(F)F)cc3)ccc21 [Compound 11, 3-(5,5-dimethyl-8-(4-(trifluoromethyl)phenyl)-1,3,4,5-tetrahydro-2H-benzo[c]azepin-2-yl)propan-1-ol] | 100 to 500 | > 500 |  |  |  |  |  |  |  | 
10 | CCCN1CCC(C)(C)c2ccc(-c3ccc(C(F)(F)F)cc3)cc2C1 [Compound 12, 5,5-dimethyl-2-propyl-8-(4-(trifluoromethyl)phenyl)-2,3,4,5-tetrahydro-1H-benzo[c]azepine] | 50 to 100 | > 500 |  |  |  |  |  |  |  | 
11 | CC1(C)CCN(C2CCCCC2)Cc2cc(-c3ccc(C(F)(F)F)cc3)ccc21 [Compound 32, 2-cyclohexyl-5,5-dimethyl-8-(4-(trifluoromethyl)phenyl)-2,3,4,5-tetrahydro-1H-benzo[c]azepine] |  |  | > 3000 | 50 to 100 | 1 | 2 | 0 | 8 | 25 | 
12 | CC1(C)CN(S(=O)(=O)c2cccc(Cl)c2)Cc2cc(N3CCN(C4CCCC4)CC3)ccc21 [Compound 33, 2-((3-chlorophenyl)sulfonyl)-7-(4-cyclopentylpiperazin-1-yl)-4,4-dimethyl-1,2,3,4-tetrahydroisoquinoline] | 0.1 to 5 | 0.1 to 5 | > 3000 |  | 0 | -1 | -1 | 13 | 9 | 
13 | CC1(C)CN(C(=O)c2cc(F)cc(Cl)c2)Cc2cc(N3CCN(C4CCCC4)CC3)ccc21 [Compound 38, (3-chloro-5-fluorophenyl)(7-(4-cyclopentylpiperazin-1-yl)-4,4-dimethyl-3,4-dihydroisoquinolin-2(1H)-yl)methanone] | 0.1 to 5 | 0.1 to 5 | 2040 |  | 0 | -1 | 0 | 1 | 51 | small antagonist effect
14 | CC1(C)CN(C(=O)OC2CCCCC2)Cc2cc(N3CCN(C4CCCC4)CC3)ccc21 [Compound 43, cyclohexyl 7-(4-cyclopentylpiperazin-1-yl)-4,4-dimethyl-3,4-dihydroisoquinoline-2(1H)-carboxylate] | 0.1 to 5 | 0.1 to 5 | 2770 |  | -4 | 0 | 0 | 11 | 15 | 
15 | CC(C)OC(=O)N1Cc2cc(N3CCN(C4CCCC4)CC3)ccc2C(C)(C)C1 [Compound 45, isopropyl 7-(4-cyclopentylpiperazin-1-yl)-4,4-dimethyl-3,4-dihydroisoquinoline-2(1H)-carboxylate] | 5 to 50 | 0.1 to 5 | > 3000 |  | -4 | -1 | 0 | -5 | 19 | 
16 | CC1(C)CCN(C(=O)C2CCCC2)Cc2cc(N3CCN(C4CCCC4)CC3)ccc21 [Compound 73, cyclopentyl(8-(4-cyclopentylpiperazin-1-yl)-5,5-dimethyl-1,3,4,5-tetrahydro-2H-benzo[c]azepin-2-yl)methanone] | 5 to 50 | 0.1 to 5 | 2600 |  | 2 | 0 | 0 | 6 | 31 | 
17 | CC1(C)CCN(C(=O)c2cccc3c2OCO3)Cc2cc(N3CCC(N4CCOCC4)CC3)ccc21 [Compound 84, benzo[d][1,3]dioxol-4-yl(5,5-dimethyl-8-(4-morpholinopiperidin-1-yl)-1,3,4,5-tetrahydro-2H-benzo[c]azepin-2-yl)methanone] |  | 5 to 50 | > 3000 |  | -2 | -2 | 0 | -1 | 19 | 
18 | CC1(C)CCN(C(=O)C2CCCC2)Cc2cc(N3CCC(N4CCOCC4)CC3)ccc21 [Compound 85, cyclopentyl(5,5-dimethyl-8-(4-morpholinopiperidin-1-yl)-1,3,4,5-tetrahydro-2H-benzo[c]azepin-2-yl)methanone] |  | 5 to 50 | > 3000 |  | -2 | 0 | 1 | -3 | 10 | 
19 | CC1(C)CCN(C(=O)C2CCCCC2)Cc2cc(N3CCC(N4CCOCC4)CC3)ccc21 [Compound 86, cyclohexyl(5,5-dimethyl-8-(4-morpholinopiperidin-1-yl)-1,3,4,5-tetrahydro-2H-benzo[c]azepin-2-yl)methanone] |  | 0.1 to 5 | > 3000 |  | 2 | 1 | 0 | 2 | -3 | 
20 | Cc1cc(-c2ccc3c(c2)CN(CCC(=O)N2CCc4ccccc4C2)CCC3(C)C)cc(C)n1 [Compound 111, 1-(3,4-dihydroisoquinolin-2(1H)-yl)-3-(8-(2,6-dimethylpyridin-4-yl)-5,5-dimethyl-1,3,4,5-tetrahydro-2H-benzo[c]azepin-2-yl)propan-1-one] | 50 to 100 |  | 2220 |  | -1 | -2 | 0 | 37 | 57 | small antagonist effect
21 | Cc1cc(-c2ccc3c(c2)CN(CCC(=O)N2CCC(C)CC2)CCC3(C)C)cc(C)n1 [Compound 131, 3-(8-(2,6-dimethylpyridin-4-yl)-5,5-dimethyl-1,3,4,5-tetrahydro-2H-benzo[c]azepin-2-yl)-1-(4-methylpiperidin-1-yl)propan-1-one] |  |  | > 3000 | 50 to 100 | 1 | -1 | -1 | 21 | 31 | 

— US20240376068A1, “SIGMA LIGAND COMPOUNDS AND USES THEREOF” (Minerva Neurosciences, Inc., priority 2020, published 2024)
